Measured values taken from patent US6893846B2, “Primers for use in detecting beta-lactamases” (priority 1998, dated 2005).

How the values were obtained:
[1] = tested on: K. pneumoniae and A. hydrophila wound infection; details: one patient, intravenous, after four weeks of therapy
SHV and TEM genes [2] = assay: PCR amplification with TEM and SHV primers; design: species or system Proteus mirabilis; details: P. mirabilis Pit 85 (pI 5.6, TEM-26-type)
Description: (§1) The organisms were inoculated into 5 ml of Luria Bertani (LB) broth (Difco, Detroit, Mich.) and incubated for 20 hours at 37° C. with shaking. Cells from 1.5 ml of overnight culture were harvested by centrifugation at 17,310×g in an Hermle centrifuge for 5 minutes. After the supernatant was decanted, the pellet was resuspended in 500 μl of distilled water. The cells were lysed by heating at 95° C. for 10 minutes and cellular debris was removed by centrifugation for 5 minutes at 17,310×g. The supernatant was used as source of template for amplification.
The following oligonucleotide primers specific for the SHV and TEM genes were designed by using MacVector version 4.5 (Kodak/IBI): SHV genes: A [5′-([…])-3′] (SEQ ID NO:10) and B [5′-([…])-3′] (SEQ ID NO:11) corresponding to nucleotide numbers 103 to 121 and 988 to 970, respectively, of Mercier et al., Antibicrob. Agents Chemother. […]
PCR amplifications were carried out on a DNA Thermal Cycler 480 instrument (Perkin-Elmer, Cetus, Norwalk, Conn.) using the Gene Amp DNA amplification kit containing AmpliTaq polymerase (Perkin Elmer, Roche Molecular Systems, Inc., Branchburg, N.J.). […] The PCR products (1/10 volume) were analyzed by electrophoresis using 1.4% agarose gels in TAE buffer (0.04 M Tris-acetate, 0.002 M EDTA [pH 8.5]). […]

SHV and TEM genes [3] = assay: PCR amplification with TEM and SHV primers; design: species or system Klebsiella pneumoniae
Description: as §1
(§2) The following oligonucleotide primers specific for the SHV and TEM genes were designed by using MacVector version 4.5 (Kodak/IBI): SHV genes: A [5′-([…])-3′] (SEQ ID NO:10) and B [5′-([…])-3′] (SEQ ID NO:11) corresponding to nucleotide numbers 103 to 121 and 988 to 970, respectively, of Mercier et al., Antibicrob. Agents Chemother. 34:1577-1583 (1990)); TEM genes: C [5′-([…])-3′ (SEQ ID NO:5) and D [5′-([…])-3′ (SEQ ID NO:1) corresponding to nucleotide numbers 90 to 105 and 1062 to 1042, respectively, of Sutcliff et al., Proc. Nat. Aca. Sci. USA, 75:3737-3741 (1978). Primers A and B amplified a 885 base pair fragment while primers C and D amplified a 971 base pair fragment. The specificity of the SHV and TEM primers for amplification of SHV and TEM genes respectively was tested by using the following beta-lactamase controls; TEM-I (pACYC177), MIR-1 (from K. pneumoniae96D) and SHV-7 (pCLL3410).
PCR amplifications were carried out on a DNA Thermal Cycler 480 instrument (Perkin-Elmer, Cetus, Norwalk, Conn.) using the Gene Amp DNA amplification kit containing AmpliTaq polymerase (Perkin Elmer, Roche Molecular Systems, Inc., Branchburg, N.J.). The composition of the reaction mixture was as follows: 10 mM Tris-HCl (pH 8.3), 50 mM KCl, 0.1% TRITON X-100, 1.5 mM MgCl2, 0.2 mM (each) of the four deoxynucleoside triphosphates, and 1.2 U of AmpliTaq in a total volume of 49 μl. A total of 1 μl of sample lysate was added to the reaction mixture, and was centrifuged briefly before […] of mineral oil was layered on the surface. The PCR program consisted of an initial denaturation step at 96° C. for 15 seconds; followed by 24 cycles of DNA denaturation at 96° C. for 15 seconds, primer annealing at 50° C. for 15 seconds and primer extension at 72° C. for 2 minutes. After the last cycle the products were stored at 4° C. The PCR products (1/10 volume) were analyzed by electrophoresis using 1.4% agarose gels in TAE buffer (0.04 M Tris-acetate, 0.002 M EDTA [pH 8.5]). The gels were stained with ethidium bromide and the PCR products were visualized with ultra-violet light. […] The larger product which corresponded to the expected size of the SHV specific product was gel purified using a 1.4% agarose in TAE gel and the purified PCR product was used for sequence analysis.

SHV and TEM genes [4] = assay: PCR amplification with TEM and SHV primers; design: species or system Escherichia coli
Description: as §1, §2
PCR amplifications were carried out on a DNA Thermal Cycler 480 instrument (Perkin-Elmer, Cetus, Norwalk, Conn.) using the Gene Amp DNA amplification kit containing AmpliTaq polymerase (Perkin Elmer, Roche Molecular Systems, Inc., Branchburg, N.J.). The composition of the reaction mixture was as follows: 10 mM Tris-HCl (pH 8.3), 50 mM KCl, 0.1% TRITON X-100, 1.5 mM MgCl2, 0.2 mM (each) of the four deoxynucleoside triphosphates, and 1.2 U of AmpliTaq in a total volume of 49 μl. A total of 1 μl of sample lysate was added to the reaction mixture, and was centrifuged briefly before […] of mineral oil was layered on the surface. The PCR program consisted of an initial denaturation step at 96° C. for 15 seconds; followed by 24 cycles of DNA denaturation at 96° C. for 15 seconds, primer annealing at 50° C. for 15 seconds and primer extension at 72° C. for 2 minutes. After the last cycle the products were stored at 4° C. The PCR products (1/10 volume) were analyzed by electrophoresis using 1.4% agarose gels in TAE buffer (0.04 M Tris-acetate, 0.002 M EDTA [pH 8.5]). The gels were stained with ethidium bromide and the PCR products were visualized with ultra-violet light. […]

Row | Substance | clinical outcome of therapy [1] | Amplification with primers (SHV and TEM genes [2]) | Amplification with primers (SHV and TEM genes [3]; K. pneumoniae Pit 16 (pI 5.6, TEM-26-type)) | Amplification with primers (SHV and TEM genes [3]; K. pneumoniae Pit 82 (pI 8.2, SHV-5)) | Amplification with primers (SHV and TEM genes [3]; K. pneumoniae Pit 100 (pI 7.6, SHV-2)) | Amplification with primers (SHV and TEM genes [4]; E. coli Pit 56 (pI 7.6, SHV-2)) | Amplification with primers (SHV and TEM genes [4]; E. coli Pit 64 (pI 5.6, TEM-26-type))
1 | imipenem/cilastatin | all signs of inflammation resolved |  |  |  |  |  | 
2 | TEM primers: primer pair C (SEQ ID NO:5) and D (SEQ ID NO:1) specific for the TEM genes (DNA 1 TCGGGGAAATGTGCG; DNA 2 TGCTTAATCAGTGAGGCACC; listed as DNA, chemistry not given here) |  | Yes | Yes | No | No | No | Yes
